Laboratory results taken from paper PMC7955127, “Preclinical small molecule WEHI-7326 overcomes drug resistance and elicits response in patient-derived xenograft models of human treatment-refractory tumors” (Cell Death & Disease, 2021).

Legend:
[1] = tested on: COG-N-440x neuroblastoma PDX; experiment: High-risk neuroblastoma PDX COG-N-440x; type: in vivo, NSG mice; settings: COG-N-440x PDX; 20 mg/kg i.v. twice weekly
Procedure: All animal studies were performed in accordance with the guidelines approved by University of New South Wales Animal Care and Ethics Committee (ACEC 17/53B) and in accordance with the requirements of the Australian Code for the Care and Use of Animals for Scientific Purposes. PDX models COG-N-440x and COG-N-496x were obtained from the Childhood Cancer Repository, Texas Tech University Health Sciences Center in Lubbock, TX, USA. 6–8 week old female NSG mice were engrafted by subcutaneous injection with 1 × 10^6 freshly thawed PDX tumor cells into one flank in a mixture of 100 μl RPMI-1640 and 100 μl Matrigel. Mice were monitored for tumor development three times weekly and tumor size measured using digital Vernier calipers. Treatments commenced when tumors reached 50 mm^3, following randomization into treatment arms. […] Mice were treated with either vincristine (0.5 mg/kg, once weekly i.p. in sterile saline for up to 5 weeks), WEHI-7326 (20 mg/kg; twice weekly i.v. in sterile saline for up to 5 weeks) or vehicle (as for WEHI-7326). For the Th-MYCN transgenic mouse model, spontaneous tumor growth in mice homozygous for the MYCN transgene was assessed by abdominal palpation at least twice a week. Treatments commenced once a small palpable tumor (~5 mm) was detected, following randomization to treatment arms. Mice were euthanized upon detection of an abdominal tumor of ~1 cm in diameter. […]

HepG2 cytotoxic assay = type: cell-based; settings: human; HepG2 cells, cell viability after 48 h
Procedure: a Chemical structures of the triazine-based anti-mitotics used in this study. b Dose-dependent antiproliferative activity of key derivatives and comparison with commonly used anti-mitotics in SW480 cell line: Data shown is cell viability (as measured by CellTiterGlo) after 72 h relative to untreated control cells. Shown is mean of 3 independent experiments performed in duplicate +/- SEM. c Dose-dependent cell cycle analysis of key derivatives of WEHI-7326 development in SW480 cell line. Data are presented as percentage of cells in G2/M or subG0 after 24 h incubation with titration of inhibitors as assessed by PI staining and flow cytometry. Mean average of 3 experiments +/- SEM. d Comparison of IC50 and EC50 values of triazine compounds and anti-mitotic drugs in SW480 cell line: inhibition of cellular proliferation and cell cycle arrest in G2/M. IC50 and EC50 values are the mean of 3 independent experiments run in duplicates +/- SEM (n.d. = not determined). e HepG2 cytotoxic assay: cell viability assay after 48 h, normalised to 0.4% DMSO (100% viability) and 2 μM bortezomib (0% viability). The data is the mean average of 2 experiments +/- SD.

134169 HGSOC PDX = experiment: HGSOC post-chemo PDX model 134169; type: in vivo, NSG mice; settings: 134169 post-taxane, cisplatin-refractory PDX; 20 mg/kg i.v. twice a week, 6 weeks
Procedure: Two to three mm ovarian tumor fragments were subcutaneously engrafted in the left flank of NSG mice and monitored by physical palpation for tumor growth and engraftment. Engrafted tumors were measured twice a week using digital Vernier calipers and maximum tumor diameter + perpendicular tumor length were digitally recorded into the Study Director software (v 3.0/4.0 StudyLog). Tumor volume was calculated automatically (tumor volume (mm^3) = 0.5236 x [larger diameter (mm) x smaller diameter (mm)^2]). Mice were randomized to treatment once their tumor volume reach 180–300 mm^3 and tumor measurements were performed twice a week up to 120 days or when the tumor volume reaches 700 mm^3.
Time to progressive disease (PD): Defined as the time (in days) from beginning of treatment to an increase in average tumor volume of >20% from the nadir (taken as the smallest average tumor volume recorded since treatment started or 200 mm^3 if nadir was <200 mm^3 as lesions smaller than this are difficult to measure with accuracy). Median time to harvest (TTH): Defined as the time (in days) from the beginning of treatment to day of harvest at 700 mm^3 and the median TTH was calculated and plotted using Kaplan-Meier curves. Based on ref. [27]. […]

COc1ccc(CNc2nc(NCc3ccc(CN)cc3)nc(NN3CC(=O)NC3=O)n2)cc1 [WEHI-7326]
Median survival [1]: 39 days
IC50 at 48 h (HepG2 cytotoxic assay): > 40 µM
Tumor response (134169 HGSOC PDX): ineffective
